Results as given in patent publication US20150147417A1, “METHOD AND PHARMACEUTICAL COMPOSITION FOR LIVER FIBROSIS PREVENTION AND/OR TREATMENT” (National Dong Hua University, priority 2013, published 2015).

How the values were obtained:
Assay type in all cases: cell-based, male Sprague-Dawley rat
MMP2 [1] = assay: MMP2 level (gelatin zymography) in THSC; details: curcumin 25 μM, except 24 h treatment
Description: (§1) Protein expression level was determined by western blotting and normalized with β-actin. Data are normalized to normal control (N) and expressed as mean±SEM in triplicate determinations. a, vs. N; b, vs. Cur. *, p<0.05; **, p<0.01; ***, p<0.001. Non-induced hepatic stellate cells (NHSC, purity >95%) were isolated from male Sprague-Dawley rat liver, and Thioacetamide (TAA; Fluka Chemie GmbH, Buchs, Switzerland)-induced hepatic stellate cells (THSC, purity >95%) were isolated from TAA-induced fibrotic liver of male Sprague-Dawley rat (Chang et al., 2009). Both cells were maintained in complete DMEM containing 10% heat-inactivated FBS and 1% penicillin/streptomycin. The activity of MMP2 was assayed by gelatine zymography, which can detect the active form and latent form of MMP2. NHSC and THSC (2×10^5 cells) were seeded in 6 well plates and incubated for 70 to 80% confluence. Cells were starved in DMEM containing 0.1% BSA for 6 h, and then treated with various concentrations of BL extract (100, 250, and 500 μg/ml) or curcumin (25 μM) for 12 and 24 h. Media were collected and centrifuged at 12,000×g for 30 min at 4° C. The supernatants were collected and protein concentration was quantified by Bradford dye (Bio-Rad). 8% SDS-PAGE gels were prepared containing 10% gelatin. […] Gels were scanned using Epson scanner and quantified using multi-gauge software (Fujifilm).

[2] = tested on: NHSC (non-induced hepatic stellate cells); assay: Oil red O staining of lipid droplets; details: curcumin 25 μM, 12 and 24 h, compared to BL extract treated cells
Description: (§2) Non-induced hepatic stellate cells (NHSC, purity >95%) were isolated from male Sprague-Dawley rat liver, and Thioacetamide (TAA; Fluka Chemie GmbH, Buchs, Switzerland)-induced hepatic stellate cells (THSC, purity >95%) were isolated from TAA-induced fibrotic liver of male Sprague-Dawley rat (Chang et al., 2009). Both cells were maintained in complete DMEM containing 10% heat-inactivated FBS and 1% penicillin/streptomycin. NHSC and THSC cells (1×10^5 cells) were seeded in 6 well plates and incubated at 37° C. overnight. Then, cells were treated with various concentrations of BL extract (100, 250, and 500 μg/ml) or curcumin (25 μM) for 12 and 24 h. Cells were washed twice with PBS and fixed with pre-warmed 3.7% paraformaldehyde for 10 min. Cells were then stained with diluted Oil red O stock solution 0.5% (w/v) in isopropanol (Fluka; buffer/water=3/2) at room temperature for 1 h under the dark. Cells were washed with 50% isopropanol and counter-stained with Hematoxylin (Sigma-Aldrich) for 1 min. Results were photographed using Olympus CKX-41 (Olympus Corporation, Tokyo, Japan). Two kinds of hepatic stellate cells were used; that is, Non-chemical induced hepatic stellate cells (NHSC), and thioacetamide-induced hepatic stellate cells (THSC) for imitating a naturally-occurred activated HSC. […]

[3] = tested on: THSC (thioacetamide-induced hepatic stellate cells); assay: Oil red O staining of lipid droplets; details: curcumin 25 μM, 12 and 24 h, compared to BL extract treated cells
Description: as §2

THSC = assay: Western blotting of protein expression levels; details: curcumin 25 μM
Description: (§3) Non-induced hepatic stellate cells (NHSC, purity >95%) were isolated from male Sprague-Dawley rat liver, and Thioacetamide (TAA; Fluka Chemie GmbH, Buchs, Switzerland)-induced hepatic stellate cells (THSC, purity >95%) were isolated from TAA-induced fibrotic liver of male Sprague-Dawley rat (Chang et al., 2009). Both cells were maintained in complete DMEM containing 10% heat-inactivated FBS and 1% penicillin/streptomycin. NHSC and THSC (5×10^5 cells) were seeded in 6 cm dish and grown till 80% confluence, and then incubated with various concentrations of BL extract (100, 250, and 500 μg/ml) or curcumin (25 μM) for 12 and 24 h. Cells were collected and lysed with RIPA buffer (150 mM NaCl, 0.1% Triton X-100, 0.5% sodium deoxycholate, 0.1% SDS, 50 mM Tris-HCl, pH 8.0). Protease inhibitor (Roche Applied Science, Mannheim, Germany) containing pancreas extract, thermolysin, chymotrypsin, trypsin, and papain was mixed with 50 ml RIPA buffer before use. Protein samples (30 μg/well) were loaded and separated with SDS-PAGE, and then transferred to PVDF membrane (PerkinElmer, Turku, Finland). The membrane was blocked with 5% non-fat milk in TBST (20 mM Tris-HCl, pH 7.4, 137 mM NaCl, and 0.05% Tween-20) at room temperature for 1 h. The membranes were incubated with primary antibodies (Table 1) at 4° C. overnight. The membranes were washed 3 times with TBST and then incubated with horseradish peroxidase (HRP)-conjugated secondary antibodies at room temperature for 1 h. Following incubation with HRP-conjugated secondary antibodies, membranes were treated with ECL reagents (PerkinElmer) for 1 min, and results were developed on LAS-3000 film (Fujifilm, Tokyo, Japan).

NHSC = assay: Western blotting of protein expression levels; details: curcumin 25 μM
Description: as §3

MMP2 [4] = assay: MMP2 level (gelatin zymography) in NHSC; details: curcumin 25 μM
Description: as §1

COc1cc(/C=C/C(=O)CC(=O)/C=C/c2ccc(O)c(OC)c2)ccc1O [curcumin]
expression level of MMP2 (MMP2 [1]): can reduce | lipid droplets (Oil red O) [2]: Fewer lipid droplets were increased | lipid droplets (Oil red O) [3]: Fewer lipid droplets were increased | expression level of TIMP2 (THSC; 24 h, vs normal control): significantly reduced | Col 1 expression level (THSC; except 24 h treatment): failed to reduce | TGF-β1 level (THSC; except 24 h treatment): cannot reduce | α-SMA expression level (THSC; except 24 h treatment): failed to reduce | Col 1 expression level (NHSC): failed to reduce | TGF-β1 level (NHSC): cannot reduce | TGF-β R1 level (NHSC): significantly reduced | α-SMA expression level (NHSC): failed to reduce | expression level of TIMP2 (NHSC; 24 h, vs normal control): significantly reduced | expression level of MMP2 (MMP2 [4]): can reduce
